Data published in patent US8765773B2, “Substituted hydroxamic acids and uses thereof” (Millennium Pharmaceuticals, Inc., priority 2010, dated 2014).

These compounds were tested against T1, purified human HDAC6 (Homo sapiens, UniProt Q9UBN7) (assay: HDAC6 Enzyme Assay). Settings: compound concentration 0.37 μM, read-out: Percent Inhibition.
T1 construct: purchased BPS Bioscience 5006
T1 sequence (Q9UBN7 1-1215): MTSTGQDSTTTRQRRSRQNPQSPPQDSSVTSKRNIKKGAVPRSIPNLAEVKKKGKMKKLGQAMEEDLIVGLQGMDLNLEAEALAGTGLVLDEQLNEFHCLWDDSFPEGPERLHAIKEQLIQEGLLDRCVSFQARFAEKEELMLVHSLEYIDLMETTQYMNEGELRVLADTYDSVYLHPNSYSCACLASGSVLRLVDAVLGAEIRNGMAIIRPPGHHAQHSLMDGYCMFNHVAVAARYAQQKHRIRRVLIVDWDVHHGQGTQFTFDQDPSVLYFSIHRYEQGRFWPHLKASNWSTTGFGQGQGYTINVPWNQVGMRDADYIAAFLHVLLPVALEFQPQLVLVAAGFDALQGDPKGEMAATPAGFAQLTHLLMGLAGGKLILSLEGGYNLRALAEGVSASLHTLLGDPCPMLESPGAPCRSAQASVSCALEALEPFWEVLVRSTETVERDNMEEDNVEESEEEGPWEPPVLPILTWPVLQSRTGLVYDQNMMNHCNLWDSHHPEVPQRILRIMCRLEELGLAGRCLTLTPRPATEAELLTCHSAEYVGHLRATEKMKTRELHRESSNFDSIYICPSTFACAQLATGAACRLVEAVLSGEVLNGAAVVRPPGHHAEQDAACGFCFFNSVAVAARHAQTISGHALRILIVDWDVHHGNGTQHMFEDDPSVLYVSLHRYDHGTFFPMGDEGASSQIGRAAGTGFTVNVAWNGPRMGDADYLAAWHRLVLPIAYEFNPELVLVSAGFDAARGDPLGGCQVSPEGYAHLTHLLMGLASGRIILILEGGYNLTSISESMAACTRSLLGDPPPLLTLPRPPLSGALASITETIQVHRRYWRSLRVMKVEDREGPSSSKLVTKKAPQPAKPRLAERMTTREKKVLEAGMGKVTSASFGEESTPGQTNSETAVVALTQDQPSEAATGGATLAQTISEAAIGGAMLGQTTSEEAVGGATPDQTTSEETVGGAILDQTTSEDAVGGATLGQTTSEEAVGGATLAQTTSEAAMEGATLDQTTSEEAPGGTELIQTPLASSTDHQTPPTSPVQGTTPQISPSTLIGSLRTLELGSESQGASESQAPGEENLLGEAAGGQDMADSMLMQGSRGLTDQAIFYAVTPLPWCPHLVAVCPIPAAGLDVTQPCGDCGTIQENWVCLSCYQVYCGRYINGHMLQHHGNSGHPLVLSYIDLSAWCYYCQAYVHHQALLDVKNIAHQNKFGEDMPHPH
Format: biochemical
Method: To measure the inhibition of HDAC6 activity, purified human HDAC6 (BPS Bioscience; Cat. No. 5006) is incubated with substrate Ac-Arg-Gly-Lys(Ac)-AMC peptide (Bachem Biosciences; Cat. No. I-1925) for 1 hour at 30° C. in the presence of test compounds or vehicle DMSO control. The reaction is stopped with the HDAC inhibitor trichostatin A (Sigma; Cat. No. T8552) and the amount of Arg-Gly-Lys-AMC generated is quantitated by digestion with trypsin (Sigma; Cat. No. T1426) and subsequent measurement of the amount of AMC released using a fluorescent plate reader (Pherastar; BMG Technologies) set at Ex 340 nm and Em 460 nm. Concentration response curves are generated by calculating the fluorescence increase in test compound-treated samples relative to DMSO-treated controls, and percentage inhibition values at a single concentration or enzyme inhibition (IC50) values are determined from those curves. One skilled in the art will appreciate that the values generated either as percentage inhibition at a single concentration or IC50 values are subject to experimental variation.

| inhibition at 0.37 µM [%] | SMILES |
| --- | --- |
| 97.9 | O=C(NO)c1ccc2ccn(Cc3cccc(-n4cc5ccccc5n4)c3)c(=O)c2c1 [Compound I-308, N-hydroxy-2-[3-(2H-indazol-2-yl)benzyl]-1-oxo-1,2-dihydroisoquinoline-7-carboxamide] |
| 89.6 | O=C(NO)c1ccc2ccn(CCN(C(=O)C3CC3)c3cccc(-n4cccn4)c3)c(=O)c2c1 [Compound I-45, 2-(2-{(cyclopropylcarbonyl)[3-(1H-pyrazol-1-yl)phenyl]amino}ethyl)-N-hydroxy-1-oxo-1,2-dihydroisoquinoline-7-carboxamide] |
| 90.6 | O=C(NO)c1ccc2ncn(CCc3cccc(-c4ccc(S(=O)(=O)N5CCCCC5)cc4)c3)c(=O)c2c1 [Compound I-299, N-hydroxy-4-oxo-3-{2-[4′-(piperidin-1-ylsulfonyl)biphenyl-3-yl]ethyl}-3,4-dihydroquinazoline-6-carboxamide] |
| 91.7 | CC(C)(C)C(=O)NCCCn1ccc2ccc(C(=O)NO)cc2c1=O [Compound I-8, 2-{3-[(2,2-dimethylpropanoyl)amino]propyl}-N-hydroxy-1-oxo-1,2-dihydroisoquinoline-7-carboxamide] |
| 89.9 | COc1cccc(-c2cccc(CCn3cnc4ccc(C(=O)NO)cc4c3=O)c2)c1 [Compound I-339, N-hydroxy-3-[2-(3′-methoxybiphenyl-3-yl)ethyl]-4-oxo-3,4-dihydroquinazoline-6-carboxamide] |
| 79 | O=C(NO)c1ccc2c(=O)[nH]c(-c3cccnc3)nc2c1 [Compound I-398, N-hydroxy-4-oxo-2-pyridin-3-yl-3,4-dihydroquinazoline-7-carboxamide] |
| 90.8 | COc1cccc(-c2cccc(Cn3cnc4ccc(C(=O)NO)cc4c3=O)c2)c1 [Compound I-281, N-hydroxy-3-[(3′-methoxybiphenyl-3-yl)methyl]-4-oxo-3,4-dihydroquinazoline-6-carboxamide] |
| 83.5 | O=C(NO)c1ccc2ncn(CCc3cccc(-c4cc5ccccc5s4)c3)c(=O)c2c1 [Compound I-302, 3-{2-[3-(1-benzothien-2-yl)phenyl]ethyl}-N-hydroxy-4-oxo-3,4-dihydroquinazoline-6-carboxamide] |
| 85.3 | O=C(NO)c1ccc2c(=O)[nH]c(C3CCCC3)nc2c1 [Compound I-420, 2-cyclopentyl-N-hydroxy-4-oxo-3,4-dihydroquinazoline-7-carboxamide] |
| 5.79 | O=C(NO)c1ccc2c(=O)[nH]c(-c3nc4ccccc4o3)nc2c1 [Compound I-404, 2-(1,3-benzoxazol-2-yl)-N-hydroxy-4-oxo-3,4-dihydroquinazoline-7-carboxamide] |
| 94 | O=C(NO)c1ccc2ncn(Cc3cccc(-c4ccc(S(=O)(=O)N5CCCCC5)cc4)c3)c(=O)c2c1 [Compound I-254, N-hydroxy-4-oxo-3-{[4′-(piperidin-1-ylsulfonyl)biphenyl-3-yl]methyl}-3,4-dihydroquinazoline-6-carboxamide] |
| 89.4 | CN(C)S(=O)(=O)c1cccc(-c2cccc(Cn3cnc4ccc(C(=O)NO)cc4c3=O)c2)c1 [Compound I-244, 3-({3′-[(dimethylamino)sulfonyl]biphenyl-3-yl}methyl)-N-hydroxy-4-oxo-3,4-dihydroquinazoline-6-carboxamide] |
| 61.5 | CC(C)c1ccc(-c2cccc(CCn3cnc4ccc(C(=O)NO)cc4c3=O)c2)cc1 [Compound I-297, N-hydroxy-3-[2-(4′-isopropylbiphenyl-3-yl)ethyl]-4-oxo-3,4-dihydroquinazoline-6-carboxamide] |
| 81.9 | O=C(NO)c1ccc2ncn(CCc3cccc(-c4cc(Cl)cc(Cl)c4)c3)c(=O)c2c1 [Compound I-345, 3-[2-(3′,5′-dichlorobiphenyl-3-yl)ethyl]-N-hydroxy-4-oxo-3,4-dihydroquinazoline-6-carboxamide] |

Same assay, conditions: compound concentration 0.412 μM, read-out: Percent Inhibition

| inhibition at 0.412 µM [%] | SMILES |
| --- | --- |
| 80.2 | O=C(NO)c1ccc2ccn(CCCOc3ccc(OCc4ccccc4)cc3)c(=O)c2c1 [Compound I-116, 2-{3-[4-(benzyloxy)phenoxy]propyl}-N-hydroxy-1-oxo-1,2-dihydroisoquinoline-7-carboxamide] |
| 90.9 | O=C(NO)c1ccc2c(=O)[nH]c(CNCc3ccc(Cl)cc3)nc2c1 [Compound I-92, 2-{[(4-chlorobenzyl)amino]methyl}-N-hydroxy-4-oxo-3,4-dihydroquinazoline-7-carboxamide] |
| 96 | COc1ccccc1OCCCn1ccc2ccc(C(=O)NO)cc2c1=O [Compound I-240, N-hydroxy-2-[3-(2-methoxyphenoxy)propyl]-1-oxo-1,2-dihydroisoquinoline-7-carboxamide] |
| 94.5 | Cc1ccc(Cn2ccc3ccc(C(=O)NO)cc3c2=O)cc1F [Compound I-54, 2-(3-fluoro-4-methylbenzyl)-N-hydroxy-1-oxo-1,2-dihydroisoquinoline-7-carboxamide] |
| 67.6 | Cn1ccc2ccc(C(=O)NO)cc2c1=O [Compound I-287, N-hydroxy-2-methyl-1-oxo-1,2-dihydroisoquinoline-7-carboxamide] |
| 68.8 | Cn1cnc2cc(C(=O)NO)ccc2c1=O [Compound I-242, N-hydroxy-3-methyl-4-oxo-3,4-dihydroquinazoline-7-carboxamide] |
| 94.9 | CC(C)CCCn1cnc2cc(C(=O)NO)ccc2c1=O [Compound I-275, N-hydroxy-3-(4-methylpentyl)-4-oxo-3,4-dihydroquinazoline-7-carboxamide] |
| 40.3 | COc1ccc2ccc(OCc3nc4cc(C(=O)NO)ccc4c(=O)[nH]3)cc2c1 [Compound I-225, N-hydroxy-2-{[(7-methoxy-2-naphthyl)oxy]methyl}-4-oxo-3,4-dihydroquinazoline-7-carboxamide] |
| 93.1 | O=C(NO)c1ccc2ccn(C3CCC3)c(=O)c2c1 [Compound I-64, 2-cyclobutyl-N-hydroxy-1-oxo-1,2-dihydroisoquinoline-7-carboxamide] |
| 86.9 | COCCOCCn1ccc2ccc(C(=O)NO)cc2c1=O [Compound I-228, N-hydroxy-2-[2-(2-methoxyethoxy)ethyl]-1-oxo-1,2-dihydroisoquinoline-7-carboxamide] |
| 88.1 | COc1ccc(-n2ccc3ccc(C(=O)NO)cc3c2=O)cc1 [Compound I-221, N-hydroxy-2-(4-methoxyphenyl)-1-oxo-1,2-dihydroisoquinoline-7-carboxamide] |
| 46.4 | CCN(CC)c1nc2ccc(C(=O)NO)cc2c(=O)n1C [Compound I-203, 2-(diethylamino)-N-hydroxy-3-methyl-4-oxo-3,4-dihydroquinazoline-6-carboxamide] |
| 46.7 | COc1ccc(Nc2nc3ccc(C(=O)NO)cc3c(=O)n2C)cc1 [Compound I-70, N-hydroxy-2-[(4-methoxyphenyl)amino]-3-methyl-4-oxo-3,4-dihydroquinazoline-6-carboxamide] |
| 96.5 | Cc1ccc(OCCCn2ccc3ccc(C(=O)NO)cc3c2=O)cc1 [Compound I-197, N-hydroxy-2-[3-(4-methylphenoxy)propyl]-1-oxo-1,2-dihydroisoquinoline-7-carboxamide] |
| 67.4 | Cc1nc(-c2ccccc2OCCCn2ccc3ccc(C(=O)NO)cc3c2=O)cs1 [Compound I-183, N-hydroxy-2-{3-[2-(2-methyl-1,3-thiazol-4-yl)phenoxy]propyl}-1-oxo-1,2-dihydroisoquinoline-7-carboxamide] |
